“Also recorded” adds a separate entry of the source.
Tests used:
[1] = system: semi-isolated Z. atratus heart; assay: semi-isolated heart bioassay (video microscopy, continuously perfused heart); parameters: species or system Zophobas atratus; conditions: synthetic peptide 1×10^-9 M in saline, semi-isolated adult Z. atratus heart, n = 3–8 (Figure 8)
Description: All HPLC fractions were re-suspended in 100 µl of T. molitor saline (274 mM NaCl, 19 mM KCl, 9 mM CaCl2, 5 mM glucose, and 5 mM HEPES, pH 7.0), to a concentration of 1 brain or CC/CA equivalent, and assayed in vitro using a semi-isolated Z. atratus heart prepared according to Gäde and Rosinski ([1990]). In the bioassay, the video microscopy technique and the computer-based method of data acquisition and analysis were used to study the action of the fractions on continuously perfused heart preparations as described previously ([Marciniak et al. 2008]). The activities of tested fractions are presented as percentage changes in the control frequency of the heart contraction.
Synthetic peptides were dissolved in saline to yield a stock solution of 1 mM and were stored at -30 °C. Working dilutions (1×10^-9 M) were made from the stock solution in saline.

heart muscles in beetles = conditions: synthetic peptide; ref Rosinski 1995; cited from earlier work
Description: All HPLC fractions were re-suspended in 100 µl of T. molitor saline (274 mM NaCl, 19 mM KCl, 9 mM CaCl2, 5 mM glucose, and 5 mM HEPES, pH 7.0), to a concentration of 1 brain or CC/CA equivalent, and assayed in vitro using a semi-isolated Z. atratus heart prepared according to Gäde and Rosinski ([1990]). In the bioassay, the video microscopy technique and the computer-based method of data acquisition and analysis were used to study the action of the fractions on continuously perfused heart preparations as described previously ([Marciniak et al. 2008]). The activities of tested fractions are pre ... || An AKH (Tenmo-AKH: pELNFSPNWa) had previously been identified from the CC of both T. molitor and Z. atratus (formerly Z. rugipes) ([Gäde and Rosinski 1990]), whereas two AKHs (pELNFSTDWa and pELNFTPNWa) are present in T. castaneum ([Audsley and Weaver, 2008]; [Gäde et al 2008]). From mass analysis of Z. atratus CC, only AKH was identified by the precursor ions 1009.7 and 1025.7, which represent the Na^+ and K^+ adducts of Temno-AKH, and its sequence was confirmed by MALDI-PSD. The protonated form of AKH is not usually detected using MALDI-TOF MS ([Audsley and Weaver, 2003]). Fraction 31 from t ...

heart of T. molitor = conditions: cited from earlier work
Text: The most prominent ion signal (1257.8) in both the brain and CC/CA corresponds to leucomyosuppressin, a member of the FMRFamide family first characterized from the cockroach L. maderae ([Holman et al. 1986a]). […] These peptides are pleiotropic as their effects on insects include the modulation of muscle contractile activity ([Predel and Nachman 2001]; [Rosinski 1995]).

[2] = system: semi-isolated Z. atratus heart; conditions: ref Skonieczna and Rosinski 2004; cited from earlier work
Text: The most prominent ion signal (1257.8) in both the brain and CC/CA corresponds to leucomyosuppressin, a member of the FMRFamide family first characterized from the cockroach L. maderae ([Holman et al. 1986a]).

Substance: GRWGGFA [Trica-NVP-4 trunc, truncated NVP-like peptide-4 (GRWGGFA)]
- chronotropic effect on heart contractile activity (in words) [1]: no effect on heart activity
- chronotropic effect on heart contractile activity (in words) ([1]; listed as NVP-4 trunc.): no effect on heart contractile activity

Substance: Proctolin
- effect on beetle heart contractions (heart muscles in beetles): stimulates contractions of the heart muscles

Substance: pELNFSPNWa [AKH]
- effect on beetle heart contractions (heart muscles in beetles): positive chronotropic effects

Substance: SPPFAPRLa [Pyrokinin 2]
- chronotropic effect on heart contractile activity (in words) [1]: minor positive chronotropic effect
- chronotropic effect on heart contractile activity (in words) ([1]; listed as PK 2): neither synthetic PK 2 nor the corresponding HPLC fraction (25) of CC/CA extract are active

Substance: PFCNAFTGCa [CCAP, crustacean cardioactive peptide]
- effect on contractions of the myocardium of T. molitor (heart of T. molitor; ref Furuya et al. 1993): stimulate contractions of the myocardium

Substance: pETSDDYGHLRFa [sulfakinin 1]
- chronotropic effect on heart contractile activity (in words) [1]: Neither sulfakinin 1 nor fraction 22 from the brain had any significant action; also recorded: no significant effects

Substance: leucomyosuppressin [LMS]
- inhibition of heart contractile activity (percentage change in the control frequency of heart contraction) ([1]; means ± SEM): 30%
- cardioinhibition in Z. atratus [2]: dose-dependent reversible cardioinhibition
- cardioinhibition in T. molitor (heart of T. molitor; ref Skonieczna and Rosinski 2004): dose-dependent reversible cardioinhibition

Substance: pETSFTPRLa [Lem-PK]
- stimulatory activity on the heart of T. molitor (heart of T. molitor; ref Rosinski 1995): very little stimulatory activity

— paper PMC3016957, “Identification of Myotropic Neuropeptides from the Brain and Corpus Cardiacum-Corpus Allatum Complex of the Beetle, Zophobas atratus” (Journal of Insect Science, 2010)
